Measurements taken from US20240391978A1, “APOLIPOPROTEIN FUSION PROTEINS FOR CELL-SPECIFIC IMMUNE REGULATION” (BIO-TRIP B.V., priority 2021, published 2024).

Columns and labels:
primary human monocytes = assay: In vitro model of trained immunity in primary human monocytes; format: cell-based
From the text: In vitro model of trained immunity in primary human monocytes: To induce trained immunity in primary human monocytes, a previously optimized and published method was used (Dominguez-Andres, J. et al. In vitro induction of trained immunity in adherent human monocytes. STAR Protoc 2, 100365, doi:10.1016/j.xpro.2021.100365 (2021); van Lier, D., Geven, C., Leijte, G. P. & Pickkers, P. Experimental human endotoxemia as a model of systemic inflammation. Biochimie 159, 99-106, doi:10.1016/j.biochi.2018.06.014 (2019)). Briefly: monocytes were adhered to a flat-bottom cell culture plate for 1 hour and washed with warm PBS to remove any non-adherent cells and cell debris. Then, they were stimulated (“trained”) for 24 hours with one of the stimuli detailed in Table 1, or medium only (“untrained” control).
For pharmacological inhibition experiments, the monocytes were pre-incubated for 1 hour with one of the inhibitors described in Table 2 before addition of the training stimulus.
Following the initial 24-hour stimulation, the cells were washed with warm PBS and warm cell culture medium was added. The monocytes were then allowed to rest and differentiate into macrophages for 5 days. On day 6, the induction of trained immunity was assessed. To this end, the cells were typically re-stimulated with LPS for an additional 24 hours to elicit cytokine production. The supernatants were collected and stored at −20° C. until further analysis, e.g. with ELISA for IL6 and TNF.
Cytokine and lactate measurements: TNF, IL6, and IL1Ra were measured in cell culture supernatants using duoset ELISA kits (R&D systems), according to the manufacturer's instructions. For lactate measurements, a fluorometric assay was used. 30 μl sample, medium control, or known standard was added to a black 96-well plate. Then, 30 μl reaction mix (PBS pH 7.4, horse radish peroxidase (0.2 U/ml), lactate oxidase (2 U/ml), Amplex red (100 μM; Fisher scientific)) was added and the reaction was incubated for 20 minutes in the dark at RT. Immediately thereafter, fluorescence was measured at 530/25 nm and 590/35 nm. Gen5 software (v3.03, BioTek) was used in conjunction with Microsoft Excel to calculate cytokine and lactate concentrations in the original samples.

TNF = assay: ChIP-qPCR of H3K9me3 at TNF; format: cell-based, human; conditions: IL4-induced trained immunity
Description: Chromatin immunoprecipitation: Macrophages were harvested as described above and resuspended in RPMI+++. The cells were fixed for 10 minutes in 1% methanol-free formaldehyde. The reaction was then quenched for 3 minutes by adding 125 mM glycine. The fixed cells were washed three times with ice-cold PBS and lysed at approximately 15*10^6 cells/ml in lysis buffer (20 mM HEPES pH 7.6, 1% SDS, 1× protease inhibitor cocktail (PIC; Roche)), sonicated (Bioruptor Pico, Diagenode), and centrifuged (10 minutes, 13000 rpm, RT).
Aliquots of chromatin were de-crosslinked in 0.5×TBE buffer (supplemented with 0.5 mg/ml proteinase K (Qiagen)) for 1 hour at 65° C. and run on a 1% agarose gel to confirm target fragment size of 200-800 bp.
The remaining chromatin was divided into ChIP and input samples. ChIP samples were diluted 10× in dilution buffer (16.7 mM Tris pH 8.0, 1.0% Triton, 1.2 mM EDTA, 167 mM NaCl, 1×PIC in MilliQ) and 1 μg of ChIP-grade antibody (Diagenode) was added. The samples were rotated overnight at 4° C.
Magnetic protein A/G beads (Dynabeads) were washed 2 times in dilution buffer supplemented with 0.15% SDS and 0.1% BSA. The washed beads were added to the ChIP samples and rotated at 4° C. for 1 hour. […]

[1] = test system: tolerant monocytes from the LPS-challenged volunteers; assay: Experimental human endotoxemia model, ex vivo tolerance reversal; format: cell-based; conditions: ex vivo exposure 24 hours, re-stimulation on day 3
From the text: In vivo experimental human endotoxemia model and ex vivo analyses: Eight healthy (as confirmed by medical history, physical examination, and routine laboratory testing) male volunteers provided written informed consent to participate in experimental endotoxemia experiments conducted at the research unit of the intensive care department of the Radboud university medical center. All study procedures were approved by the local ethics committee (CMO Arnhem-Nijmegen, registration numbers NL71293.091.19 and 2019-5730), and were conducted in accordance with the latest version of the declaration of Helsinki.
A continuous endotoxin infusion regimen was employed, as is described in detail elsewhere (van Lier, D., Geven, C., Leijte, G. P. & Pickkers, P. Experimental human endotoxemia as a model of systemic inflammation. Biochimie 159, 99-106, doi:10.1016/j.biochi.2018.06.014 (2019)). […] A 3-lead ECG was recorded continuously throughout the experiment. […] Participants were monitored for 8 hours after the endotoxin loading dose after which they were discharged from the research unit. […]
Cytokine and lactate measurements: TNF, IL6, and IL1Ra were measured in cell culture supernatants using duoset ELISA kits (R&D systems), according to the manufacturer's instructions. […] Immediately thereafter, fluorescence was measured at 530/25 nm and 590/35 nm. […]

IL4: recombinant human interleukin 4
induction of trained immunity (TNF and IL6 after LPS re-stimulation on day 6) (primary human monocytes; 24 hours training, 5-day rest, LPS 24 hours): induced a trained immunity phenotype on day 6
lactate at baseline of trained cells (primary human monocytes; IL4-trained cells, day 6, data not shown): produced more lactate at baseline
effect on β-glucan-induced trained immunity (primary human monocytes; IL4 added in the first 24 hours with β-glucan): did not inhibit the training effect
H3K9me3 at TNF (AUC analysis of primer pairs) (TNF): a decrease of H3K9me3
production of IL6 upon re-stimulation with LPS [1]: but not IL6
production of TNF upon re-stimulation with LPS [1]: significantly improved
